Values of other authors in patent publication US20040058943A1, “Medicinal composition for treatment of chronic cardiac failure” (priority 2001, published 2004).
Where two headings read alike, the source gives them in different places.

Key:
[1] = tested on: model rats of heart failure after myocardial infarction; conditions: for effect on mortality: 9-months long-term oral administration
[2] = tested on: model rats of heart failure; conditions: 10-week oral administration

SMILES | effect on mortality ([1]; dose 30 mg/kg·day) | effect on mortality ([1]; dose 100 mg/kg·day) | ameliorating the left ventricular end-diastolic pressure (LVEDP) ([1]; long-term oral administration) | maximum value of the first order differentiation of the left ventricular systolic pressure (LVdP/dtmax) ([1]; long-term oral administration) | ameliorating the left ventricular end-diastolic pressure (LVEDP) [2] | cardiac hypertrophy [2] | maximum value of the first order differentiation of the left ventricular systolic pressure (LVdP/dtmax) [2]
COc1ccccc1Oc1c(NS(=O)(=O)c2ccc(C(C)(C)C)cc2)nc(-c2ncccn2)nc1OCCO [bosentan] | ineffective | significantly reduces the mortality | effective | ineffective | – | – | –
COc1cc(OC)nc(O[C@H](C(=O)O)C(OC)(c2ccccc2)c2ccccc2)n1 [darusentan] | – | – | – | – | effective | ineffective | ineffective
